Where a SMILES comes first, the peptide text is derived from it. The star is where a group is joined. CH2Cl = ClC*
Columns and labels:
Calpain II = Calpain II KI (Table 1B(ii)); type: biochemical
Text: (§1) We tested the ability of an additional group of Peptide Keto-Compounds to inhibit several proteases in order to evaluate their specificity for Calpain.

Chym = Chym (Bos taurus, UniProt P00766); test: Chym KI (Table 1B(ii)); type: biochemical
Text: as §1

PP Elastase = PP Elastase (Sus scrofa, UniProt P00772); test: PP Elastase KI (Table 1B(ii)); type: biochemical
Text: as §1

Stability in plasma = type: in vitro ADME; conditions: unit assumed
Text: We determined the haft-life of several Peptide Keto-Compounds in both plasma and liver homogenates.

Calpain within platelets = test: Platelet membrane permeation assay, spectrin proteolysis (Examples 4A, 4B); type: cell-based, rat; conditions: for inhibition of Calpain within platelets: A23187 1 μM; for IC50: concentration at which 50% of the Calpain activation present in controls occurred
Experimental: Platelets were isolated by a modification of the method of Ferrell and Martin, J Biol. Chem., 264:20723-20729 (1989), the disclosure of which is hereby incorporated by reference. Blood (15-20 ml) was drawn from male Sprague-Dawley rats into 100 mM EDTA-citrate containing 10 units heparin, and centrifuged 30 minutes at 1600 rpm at room temperature. The plasma was resuspended in 15 ml buffer 1 (136 mM NaCl, 2.7 mM KCl, 0.42 mM NaH2 PO4, 12 mM NaHCO3, 2 mM MgCl2, 2 mg/ml BSA (Sigma), 5.6 mM glucose, 22 mM Na3 Citrate pH 6.5) and platelets were isolated at 2200 rpm at room temperature of 25 minutes. Platelets were resuspended to 10^7 cells/ml in buffer 2 (136 mM NaCl, 2.7 mM KCl, 0.42 NaH2 PO4, 12 mM NaHCO3, 2 mM MgCl, 1 mg/ml BSA, 5.6 mM glucose, 20 mM HEPES pH 7.4) and allowed to "rest" for a minimum of 10 minutes at room temperature before use.
Platelets were incubated for 5 minutes in the presence of inhibitor. In order to provide sufficient intracellular calcium to activate Calpain, the calcium ionophore A23187 was added to a final concentration of 1 μM. After a further 5 minute incubation, the platelets were harvested by centrifugation (1 min 10,000×g) and resuspended in 10% sodium dodecyl sulfate, 10 mM Tris pH=8.0, 5% β-mercaptoethanol, 0.02% bromophenol blue, and heated to 95° C. for 5 min. Samples were subjected to SDS-PAGE on 6% mini gels and transferred to nitrocellulose (Schleicher and Schuell BAS3) for 2 hours at 100 mA/gel in an LKB Novablot. Filters were blocked for 10 minutes in 0.25% gelatin, 1% BSA, 0.25% Triton X100, 0.9% NaCl, 10 mM Tris-Cl pH 7.5, incubated overnight in the same solution containing antibody to rat spectrin, washed 3×10 minutes with 10 mM Tris-Cl pH 7.5, 0.5 % Triton X100, incubated 4 hours in wash buffer plus alkaline phosphatase conjugated goat anti-rabbit antibody (Biorad), and washed as above. Filters were developed using the Biorad AP conjugate substrate kit. Spectrin immunoreactivity on the filters was quantitated by densitometry.

[1] = system: Calpain in crude brain extracts; test: Ca2+-stimulated spectrin proteolysis in crude brain extracts (Example 2); type: biochemical; conditions: 100 μM
Experimental: The activity of Calpain in crude brain extracts was measured by examining the Ca^2+ -stimulated proteolysis of the endogenous substrate spectrin. Brain tissue was homogenized in 10 mM Tris pH=7.4, 0.32M sucrose, 1 mM EGTA, 1 mM dithiothreitol and the nuclei and debris removed by low speed centrifugation. […] Proteolysis of spectrin was evaluated by western blot as described by Seubert, et at. (Brain Research, 459:226-232, 1988), the disclosure of which is hereby incorporated by reference. Briefly, a known quantity of a spectrin-containing sample treated with Calpain is separated by SDS-PAGE and immunoblotted with anti-spectrin antibody. The amount of spectrin immunoreactivity found corresponding to the characteristic BDP's is indicative of the amount of […] activity present in the sample. An examplary method for quantitating BDP's is to assay Spectrin BDP's by homogenizing brain parts in 20 mM Tris pH=7.2, 0.32M sucrose, 50 μM Ac-Leu-Leu-nLeu-H on ice. Homogenates are then mixed 1:1 with 10% SDS, 5% β-mercaptoethanol, 10% glycerol, 10 mM Tris pH=8.0, 0.5% bromophenolblue, heated to 95° C., and subjected to electrophoresis in 41/2% polyacrylamide gels. The proteins in the gels are transferred to nitrocellulose and the spectrin and BDP's detected using a rabbit polyclonal anti-spectrin antibody and established immunodetection methods. The amount of spectrin and BDP's in each sample can be quantitated by densitrometric scanning of the developed nitrocellulose.

Cathepsin B = Cathepsin B (Bos taurus, UniProt P07688); test: Cathepsin B KI (Table 1B(ii)); type: biochemical; conditions: read-out: KI CathB
Text: as §1

Calpain I = target: T1, Calpain I (Homo sapiens, UniProt P07384); test: Calpain I KI (Table 1B(ii)); type: biochemical; conditions: Table 1B(ii)
T1 sequence (P07384 1-714): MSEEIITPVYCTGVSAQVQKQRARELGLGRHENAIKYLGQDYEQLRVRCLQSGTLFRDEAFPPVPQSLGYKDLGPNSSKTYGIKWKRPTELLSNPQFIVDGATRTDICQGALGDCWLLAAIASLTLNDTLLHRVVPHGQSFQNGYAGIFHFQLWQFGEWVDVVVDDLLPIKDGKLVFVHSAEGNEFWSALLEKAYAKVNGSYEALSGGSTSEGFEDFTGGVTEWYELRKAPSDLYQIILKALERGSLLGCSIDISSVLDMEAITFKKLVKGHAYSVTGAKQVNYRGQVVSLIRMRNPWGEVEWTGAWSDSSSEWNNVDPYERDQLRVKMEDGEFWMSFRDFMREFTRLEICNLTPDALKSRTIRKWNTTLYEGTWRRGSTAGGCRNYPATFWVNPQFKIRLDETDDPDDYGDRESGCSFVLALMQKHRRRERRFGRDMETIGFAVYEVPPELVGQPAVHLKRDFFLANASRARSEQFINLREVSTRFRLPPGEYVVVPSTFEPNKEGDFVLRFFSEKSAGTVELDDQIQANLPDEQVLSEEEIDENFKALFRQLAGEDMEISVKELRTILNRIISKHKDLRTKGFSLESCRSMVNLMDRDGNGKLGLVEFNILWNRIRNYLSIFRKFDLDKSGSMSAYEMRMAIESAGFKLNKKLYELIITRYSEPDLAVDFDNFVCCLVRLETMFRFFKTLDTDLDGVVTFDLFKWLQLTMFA
T1 sequence (P04632 1-268 partner): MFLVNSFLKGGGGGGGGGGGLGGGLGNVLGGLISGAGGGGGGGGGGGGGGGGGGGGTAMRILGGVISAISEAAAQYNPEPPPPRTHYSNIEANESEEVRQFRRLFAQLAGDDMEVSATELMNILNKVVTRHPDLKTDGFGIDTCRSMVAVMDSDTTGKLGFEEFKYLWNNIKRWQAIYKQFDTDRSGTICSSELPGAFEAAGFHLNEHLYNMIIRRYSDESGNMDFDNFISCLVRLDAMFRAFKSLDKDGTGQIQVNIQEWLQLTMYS
Text: as §1

Sequence of PP Elastase (P00772 27-266): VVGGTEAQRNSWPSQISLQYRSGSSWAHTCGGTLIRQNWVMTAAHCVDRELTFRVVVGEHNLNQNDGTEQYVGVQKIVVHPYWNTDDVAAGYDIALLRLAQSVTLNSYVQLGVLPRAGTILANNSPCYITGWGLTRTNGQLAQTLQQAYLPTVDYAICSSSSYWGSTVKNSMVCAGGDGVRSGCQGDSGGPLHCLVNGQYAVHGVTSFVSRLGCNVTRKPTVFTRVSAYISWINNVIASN

Row | Ki (Calpain II) [µM] | Compound | inhibition of Calpain within platelets (Calpain within platelets; 100 μM) | inhibition of spectrin proteolysis in crude brain extracts [1] | other results
1 | 0.09 | CCOC(=O)C(=O)[C@H](CC)NC(=O)[C@H](CC(C)C)NC(=O)[C@H](CC(C)C)NC(=O)c1ccc2ccccc2c1 [2-NapCO-Leu-Leu-Abu-COOEt] |  |  | Ki (Chym): > 300 µM; Ki (PP Elastase): 28 µM; t1/2 plasma (Stability in plasma): 0.417 h
2 |  | CCOC(=O)C(=O)C(CC)NC(=O)C(CC(C)C)NS(=O)(=O)c1ccc2ccccc2c1 (stereo not drawn) [2-NapSO2 -Leu-Abu-COOEt] | significant inhibition |  | 
3 |  | O=c1oc(Cl)c(Cl)c2ccccc12 [3,4-dichloroisocoumarin, reference compound] |  | significant inhibition | 
4 |  | O=c1oc(OCc2ccccc2)c(Cl)c2ccccc12 [3-benzyloxy-4-chloroisocoumarin] |  | significant inhibition | 
5 |  | O=c1oc(Cl)cc2ccccc12 [3-chloroisocoumarin, reference compound] | significant inhibition | significant inhibition | 
6 |  | N=C(N)SCCCOc1oc(=O)c2cc(NC(=O)CCc3ccccc3)ccc2c1Cl [7-(3-phenylpropionylamino)-4-chloro-3-(3-isothiureidopropoxy)isocoumarin] | significant inhibition | significant inhibition | 
7 |  | CCCOc1oc(=O)c2cc(NC(C)=O)ccc2c1Cl [7-(acetylamino)-4-chloro-3-(propoxy)-isocoumarin] |  | significant inhibition | 
8 |  | N=C(N)SCCCOc1oc(=O)c2cc(NC(=O)Cc3ccccc3)ccc2c1Cl [7-(phenylacetylamino)-4-chloro-3-(3-isothiureidopropoxy)isocoumarin] | significant inhibition | significant inhibition | 
9 |  | N=C(N)SCCOc1oc(=O)c2cc(NC(=O)Nc3ccccc3)ccc2c1Cl [7-(phenylcarbamoylamino)-4-chloro-3-(2-isothiureidoethoxy)isocoumarin] | significant inhibition | significant inhibition | 
10 |  | N=C(N)SCCCOc1oc(=O)c2cc(NC(=O)Nc3ccccc3)ccc2c1Cl [7-(phenylcarbamoylamino)-4-chloro-3-(3-isothiureidopropoxy)isocoumarin] | significant inhibition | significant inhibition | 
11 |  | CC(=O)NC(C(=O)NC(Cc1ccccc1)C(=O)CCl)C(C)C (stereo not drawn) [Ac-Val-Phe-CH2Cl] (Ac-Val-Phe-CH2Cl; configuration not given here) |  | significant inhibition | 
12 | 1.2 | CCOC(=O)C(=O)C(CC)NC(=O)C(CC(C)C)NC(=O)C(C)(C)c1ccccc1 (stereo not drawn) [Ph-(CH3)2 -CO-Leu-Abu-COOEt] |  |  | 
13 | 0.022 | CC[C@H](NC(=O)[C@H](CC(C)C)NC(=O)OCc1ccccc1)C(=O)C(=O)NCCc1ccccc1 [Z-Leu-Abu-CONH-(CH2)2 -Ph, Z-Leu-Abu-CONH-(CH2)2 Ph] |  |  | 
14 | 0.078 | CCC(NC(=O)C(CC(C)C)NC(=O)OCc1ccccc1)C(=O)C(=O)NCCO (stereo not drawn) [Z-Leu-Abu-CONH-(CH2)2 OH] |  |  | 
15 | 0.041 | CC[C@H](NC(=O)[C@H](CC(C)C)NC(=O)OCc1ccccc1)C(=O)C(=O)NCCCN1CCOCC1 [Z-Leu-Abu-CONH-(CH2)3 -Mpl, Z-Leu-Abu-CONH--(CH2)3 -N(CH2 CH2)2 O] |  |  | 
16 | 0.019 | CCCCCCCCNC(=O)C(=O)[C@H](CC)NC(=O)[C@H](CC(C)C)NC(=O)OCc1ccccc1 [Z-Leu-Abu-CONH-(CH2)7 CH3, Z-Leu-Abu-CONH--(CH2)7 CH3] |  |  | 
17 | 0.14 | CCC(NC(=O)C(CC(C)C)NC(=O)OCc1ccccc1)C(=O)C(=O)NCC(C)C (stereo not drawn) [Z-Leu-Abu-CONHiBu, Z-Leu-Abu-CONH-iBu] |  |  | Ki (Cathepsin B): 4 µM; Ki (Chym): > 300 µM; Ki (PP Elastase): 40 µM; t1/2 plasma (Stability in plasma): > 1 h; IC50 (Calpain within platelets): 28 µM
18 | 2.6 | CCOC(=O)C(=O)C(CC)NC(=O)C(CC(C)C)NC(=O)C(CC(C)C)NC(=O)OCc1ccccc1 (stereo not drawn) [Z-Leu-Leu-Abu-COOEt] | significant inhibition |  | Ki (Cathepsin B): 22 µM; Ki (Chym): > 100 µM; Ki (PP Elastase): 25 µM; IC50 (Calpain within platelets): 40 µM
19 | 0.024 | CC(C)C[C@H](NC(=O)OCc1ccccc1)C(=O)N[C@@H](Cc1ccccc1)C(=O)C(=O)NCCc1ccccc1 [Z-Leu-Phe-CONH(CH2)2 Ph, Z-Leu-Phe-CONH-(CH2)2 Ph] |  |  | Ki (Chym): 2 µM; t1/2 plasma (Stability in plasma): > 1 h; IC50 (Calpain within platelets): 3 µM
20 | 0.046 | CC(C)C[C@H](NC(=O)OCc1ccccc1)C(=O)N[C@@H](Cc1ccccc1)C(=O)C(=O)NCc1ccccc1 [Z-Leu-Phe-CONHBz, Z-Leu-Phe-CONH-Bzl] |  |  | 
21 | 0.065 | CC(C)CNC(=O)C(=O)[C@H](Cc1ccccc1)NC(=O)[C@H](CC(C)C)NC(=O)OCc1ccccc1 [Z-Leu-Phe-CONHiBu, Z-Leu-Phe-CONH-iBu] |  |  | Ki (Cathepsin B): 4 µM; Ki (Chym): 24 µM; t1/2 plasma (Stability in plasma): > 1 h; IC50 (Calpain within platelets): 22 µM
22 |  | Z-Leu-Abu | significant inhibition |  | 

Row | Compound | Ki (Calpain II) [µM] | inhibition of Calpain within platelets (Calpain within platelets; 100 μM) | inhibition of spectrin proteolysis in crude brain extracts [1] | other results
23 | CC[C@H](NC(=O)[C@H](CC(C)C)NC(=O)OCc1ccccc1)C(=O)C(=O)OCc1ccccc1 [Z-Leu-Abu-COOBz, Z-Leu-Abu-CO2 Bzl] | 0.47 | significant inhibition |  | Ki (Calpain I): 9.5 µM; Ki (Cathepsin B): 4 µM; Ki (Chym): 40 µM; Ki (PP Elastase): > 100 µM; platelet assay, semi-quantitative (Calpain within platelets; semi-quantitative, 100 μM): ++

From patent publication US5444042A, “Method of treatment of neurodegeneration with calpain inhibitors” (Cortex Pharmaceuticals, priority 1994, dated 1995)
